Data set [1] can be described thus: Stability test of amorphous and crystalline form under severe condition (60° C.). The data set is classed as physicochemical. The settings on record: after 28 days. From the text: Therefore, it should be understood that the crystalline form has better stability than the amorphous form enough to be used for the composition of inhibitor or therapeutic agent.
Data set [2] relates to LPS-Induced Acute Hepatitis in Mice. As to the kind of experiment: Treatment effect on LPS-induced acute hepatitis in mice (blood plasma ALT activity). It counts as in vivo, Male Balb/c mice. To be noted: Mus musculus, LPS/D-Gln model, plasma ALT 8 hours after drug injection.
Data set [3] deals with Fas Antibody-Induced Acute Hepatitis in Mice. Put plainly: Treatment effect on Fas antibody-induced acute hepatitis in mice (blood plasma ALT activity). It counts as in vivo, Male Balb/c mice. The settings on record: Mus musculus, Fas antibody model, plasma ALT 8 hours after drug injection.

In the case of `CC(C)[C@@]1(C(=O)N[C@H]2CC(=O)O[C@]2(O)CF)CC(c2nccc3ccccc23)=NO1` [(4S,5S)-5-fluoromethyl-5-hydroxy-4-({[(5R)-5-isopropyl-3-(1-isoquinolinyl)-4,5-dihydro-5-isoxazolyl]carbonyl}amino)-2-dihydrofuranone], in data set [1], the “amount destroyed in stability test” value was determined as 50% and the “quantitative amount in stability test” value is given as “not decreased at all”.

With `CC(C)[C@@]1(C(=O)N[C@H]2CC(=O)O[C@]2(O)CF)CC(c2nccc3ccccc23)=NO1` [compound of formula (1), (4S,5S)-5-fluoromethyl-5-hydroxy-4-({[(5R)-5-isopropyl-3-(1-isoquinolinyl)-4,5-dihydro-5-isoxazolyl]carbonyl}amino)-2-dihydrofuranone], the ED50 in data set [2] (intravenous administration) came to 0.015 mg/kg; in data set [2] (oral administration), 0.02 mg/kg; in data set [3] (intravenous administration), 0.003 mg/kg; in data set [3] (oral administration), 0.018 mg/kg.
